Data on eleven molecules can be found in patent publication US7074789B2, “Kinase inhibitors” (Amgen Inc., priority 1999, dated 2006).

What all share (type): biochemical
One test has as its target T1, PDGFRB (Homo sapiens, UniProt P09619).
T1 construct: Kinases are expressed as either kinase domains or full length constructs; made in house
Put plainly: Kinase inhibition assay (33P transfer), PDGFRB. As to conditions: read-out: PDGFRB-1.

A further test has as its target T2, Lck (Homo sapiens, UniProt P06239).
T2 construct: Kinases are expressed as either kinase domains or full length constructs; made in house
Put plainly: Kinase inhibition assay (33P transfer), Lck. The following applies: Table 3; read-out: Lck-1. In a few lines:
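33P-ATP transfer to coated synthetic polymer substrates; acid wash (0.5% H3PO4), scintillant, liquid scintillation count. Enzymes: His- or GST-fusion kinases from E. coli or High Five insect cells.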

Another test has as its target T3, Tek (Homo sapiens, UniProt Q02763).
T3 construct: Kinases are expressed as either kinase domains or full length constructs; made in house
Nature of the test: Kinase inhibition assay (33P transfer), Tek. The following applies: read-out: Tek-1. In outline: (§1)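 GST/His-fusion kinases, E. coli or High Five expressed, affinity purified; 33P-ATP, plate-coated poly(Glu,Tyr) 4:1 or poly(Arg,Ser) 3:1; 0.5% H3PO4 wash, scintillant, LSC.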

Another test addresses T4, EGFR (Homo sapiens, UniProt P00533).
T4 construct: Kinases are expressed as either kinase domains or full length constructs; made in house
Put plainly: Kinase inhibition assay (33P transfer), EGFR. The following applies: Table 2, kinase inhibition class; read-out: EGFR-1. In a few lines:
as §1

Another test concerns the target T5, Itk (Homo sapiens, UniProt Q08881).
T5 construct: Kinases are expressed as either kinase domains or full length constructs; made in house
T5 sequence (Q08881 1-620): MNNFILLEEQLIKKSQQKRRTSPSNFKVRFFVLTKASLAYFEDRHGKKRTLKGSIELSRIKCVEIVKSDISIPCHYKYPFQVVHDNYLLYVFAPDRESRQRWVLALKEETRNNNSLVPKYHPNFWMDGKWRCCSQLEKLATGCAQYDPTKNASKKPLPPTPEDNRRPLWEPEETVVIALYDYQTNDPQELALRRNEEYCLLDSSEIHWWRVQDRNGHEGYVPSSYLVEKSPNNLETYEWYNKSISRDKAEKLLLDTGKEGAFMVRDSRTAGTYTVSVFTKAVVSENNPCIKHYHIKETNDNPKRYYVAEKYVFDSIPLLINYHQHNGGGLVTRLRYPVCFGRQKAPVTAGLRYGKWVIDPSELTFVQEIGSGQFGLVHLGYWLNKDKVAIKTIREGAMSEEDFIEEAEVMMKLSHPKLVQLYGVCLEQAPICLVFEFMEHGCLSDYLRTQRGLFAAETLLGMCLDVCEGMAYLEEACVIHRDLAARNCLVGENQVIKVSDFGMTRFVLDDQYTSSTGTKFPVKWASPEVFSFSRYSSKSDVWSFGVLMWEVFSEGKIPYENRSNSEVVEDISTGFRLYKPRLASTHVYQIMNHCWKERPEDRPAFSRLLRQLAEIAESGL
Nature of the test: Kinase inhibition assay (33P transfer), Itk. The following applies: Table 3; read-out: Itk-1. In a few lines:
as §1

The target of another test is T6, FGFR1 (Homo sapiens, UniProt P11362).
T6 construct: Kinases are expressed as either kinase domains or full length constructs; made in house
T6 sequence (P11362 22-822, species assumed): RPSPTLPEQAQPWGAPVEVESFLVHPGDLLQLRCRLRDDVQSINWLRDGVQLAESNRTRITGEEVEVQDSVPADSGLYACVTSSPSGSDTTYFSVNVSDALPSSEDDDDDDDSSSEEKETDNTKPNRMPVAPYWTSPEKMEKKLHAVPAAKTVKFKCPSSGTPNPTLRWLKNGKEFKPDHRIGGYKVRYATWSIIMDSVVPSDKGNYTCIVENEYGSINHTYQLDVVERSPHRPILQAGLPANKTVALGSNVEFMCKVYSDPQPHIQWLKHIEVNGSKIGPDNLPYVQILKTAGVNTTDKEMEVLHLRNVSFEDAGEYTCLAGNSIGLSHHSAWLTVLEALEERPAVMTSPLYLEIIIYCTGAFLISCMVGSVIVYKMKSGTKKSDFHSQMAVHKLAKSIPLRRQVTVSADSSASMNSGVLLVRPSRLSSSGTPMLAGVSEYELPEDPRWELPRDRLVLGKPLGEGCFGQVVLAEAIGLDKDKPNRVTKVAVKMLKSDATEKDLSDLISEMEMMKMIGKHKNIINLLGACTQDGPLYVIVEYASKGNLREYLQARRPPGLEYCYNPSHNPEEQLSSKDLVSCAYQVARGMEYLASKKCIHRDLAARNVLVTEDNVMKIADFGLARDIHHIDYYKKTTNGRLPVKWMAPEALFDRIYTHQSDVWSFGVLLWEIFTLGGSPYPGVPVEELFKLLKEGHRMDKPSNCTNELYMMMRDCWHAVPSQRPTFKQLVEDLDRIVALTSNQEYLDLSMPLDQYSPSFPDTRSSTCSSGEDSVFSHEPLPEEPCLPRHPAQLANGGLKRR
Put plainly: Kinase inhibition assay (33P transfer), FGFR1. The following applies: read-out: FGFR1-1.

In another test the target is T7, c-Met (Homo sapiens, UniProt P08581).
T7 construct: Kinases are expressed as either kinase domains or full length constructs; made in house
Put plainly: Kinase inhibition assay (33P transfer), c-Met. As to conditions: Table 2, kinase inhibition class; read-out: Met-1. In a few lines:
as §1

In another test the target is T8, Fyn (Homo sapiens, UniProt P06241).
T8 construct: Kinases are expressed as either kinase domains or full length constructs; made in house
Put plainly: Kinase inhibition assay (33P transfer), Fyn. As to conditions: read-out: Fyn-1. In a few lines:
as §1

The target of a further test is T9, IGFR-1 (Homo sapiens, UniProt P08069).
T9 construct: Kinases are expressed as either kinase domains or full length constructs; made in house
Nature of the test: Kinase inhibition assay (33P transfer), IGFR-1. The following applies: Table 2, kinase inhibition class.

The target of the next test is T10, ErbB4 (Homo sapiens, UniProt Q15303).
T10 construct: Kinases are expressed as either kinase domains or full length constructs; made in house
T10 sequence (Q15303 26-1308, species assumed): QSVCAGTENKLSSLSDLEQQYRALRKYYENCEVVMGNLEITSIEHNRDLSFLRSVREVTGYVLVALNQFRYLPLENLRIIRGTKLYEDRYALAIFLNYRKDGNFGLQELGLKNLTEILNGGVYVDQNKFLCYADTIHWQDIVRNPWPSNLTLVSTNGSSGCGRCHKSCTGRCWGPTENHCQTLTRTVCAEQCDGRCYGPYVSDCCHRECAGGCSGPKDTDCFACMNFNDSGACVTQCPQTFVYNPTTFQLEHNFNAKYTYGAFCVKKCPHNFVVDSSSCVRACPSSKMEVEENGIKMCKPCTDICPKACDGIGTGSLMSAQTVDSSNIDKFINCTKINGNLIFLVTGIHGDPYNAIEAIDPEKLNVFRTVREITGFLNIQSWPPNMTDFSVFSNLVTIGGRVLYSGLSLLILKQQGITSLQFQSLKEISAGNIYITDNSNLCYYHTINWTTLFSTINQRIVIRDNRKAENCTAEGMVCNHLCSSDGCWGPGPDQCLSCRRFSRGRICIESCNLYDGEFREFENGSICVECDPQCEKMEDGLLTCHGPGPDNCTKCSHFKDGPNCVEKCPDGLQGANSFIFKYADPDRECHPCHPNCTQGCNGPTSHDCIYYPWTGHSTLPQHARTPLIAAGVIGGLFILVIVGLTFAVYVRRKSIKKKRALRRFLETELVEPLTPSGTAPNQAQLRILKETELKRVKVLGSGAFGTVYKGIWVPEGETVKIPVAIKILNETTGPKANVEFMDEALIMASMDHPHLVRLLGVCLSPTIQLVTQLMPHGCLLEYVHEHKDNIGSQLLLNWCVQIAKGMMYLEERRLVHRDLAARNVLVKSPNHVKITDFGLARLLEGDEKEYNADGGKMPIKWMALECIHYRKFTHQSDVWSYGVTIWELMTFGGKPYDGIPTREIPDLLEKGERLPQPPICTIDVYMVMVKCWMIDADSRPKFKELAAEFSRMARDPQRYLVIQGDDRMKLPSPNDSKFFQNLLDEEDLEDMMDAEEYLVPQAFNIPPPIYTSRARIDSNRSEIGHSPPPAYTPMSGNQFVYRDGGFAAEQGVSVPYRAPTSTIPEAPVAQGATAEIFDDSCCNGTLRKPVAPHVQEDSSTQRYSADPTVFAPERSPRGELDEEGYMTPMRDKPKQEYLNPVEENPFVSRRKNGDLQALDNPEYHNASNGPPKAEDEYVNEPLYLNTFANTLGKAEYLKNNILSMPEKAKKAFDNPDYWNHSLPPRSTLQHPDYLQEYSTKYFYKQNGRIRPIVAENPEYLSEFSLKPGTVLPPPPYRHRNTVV
Put plainly: Kinase inhibition assay (33P transfer), ErbB4. As to conditions: read-out: ErbB4-1.

A further test concerns the target T11, Flt-1 (Homo sapiens, UniProt P17948).
T11 construct: Kinases are expressed as either kinase domains or full length constructs; made in house
Nature of the test: Kinase inhibition assay (33P transfer), Flt-1. In outline:
as §1

The target of the next test is T12, Hck-1 (Homo sapiens, UniProt P08631).
T12 construct: Kinases are expressed as either kinase domains or full length constructs; made in house
Nature of the test: Kinase inhibition assay (33P transfer), Hck. The following applies: Table 6, Hck-1 kinase inhibition class.

T3 sequence (Q02763 23-1124, species assumed): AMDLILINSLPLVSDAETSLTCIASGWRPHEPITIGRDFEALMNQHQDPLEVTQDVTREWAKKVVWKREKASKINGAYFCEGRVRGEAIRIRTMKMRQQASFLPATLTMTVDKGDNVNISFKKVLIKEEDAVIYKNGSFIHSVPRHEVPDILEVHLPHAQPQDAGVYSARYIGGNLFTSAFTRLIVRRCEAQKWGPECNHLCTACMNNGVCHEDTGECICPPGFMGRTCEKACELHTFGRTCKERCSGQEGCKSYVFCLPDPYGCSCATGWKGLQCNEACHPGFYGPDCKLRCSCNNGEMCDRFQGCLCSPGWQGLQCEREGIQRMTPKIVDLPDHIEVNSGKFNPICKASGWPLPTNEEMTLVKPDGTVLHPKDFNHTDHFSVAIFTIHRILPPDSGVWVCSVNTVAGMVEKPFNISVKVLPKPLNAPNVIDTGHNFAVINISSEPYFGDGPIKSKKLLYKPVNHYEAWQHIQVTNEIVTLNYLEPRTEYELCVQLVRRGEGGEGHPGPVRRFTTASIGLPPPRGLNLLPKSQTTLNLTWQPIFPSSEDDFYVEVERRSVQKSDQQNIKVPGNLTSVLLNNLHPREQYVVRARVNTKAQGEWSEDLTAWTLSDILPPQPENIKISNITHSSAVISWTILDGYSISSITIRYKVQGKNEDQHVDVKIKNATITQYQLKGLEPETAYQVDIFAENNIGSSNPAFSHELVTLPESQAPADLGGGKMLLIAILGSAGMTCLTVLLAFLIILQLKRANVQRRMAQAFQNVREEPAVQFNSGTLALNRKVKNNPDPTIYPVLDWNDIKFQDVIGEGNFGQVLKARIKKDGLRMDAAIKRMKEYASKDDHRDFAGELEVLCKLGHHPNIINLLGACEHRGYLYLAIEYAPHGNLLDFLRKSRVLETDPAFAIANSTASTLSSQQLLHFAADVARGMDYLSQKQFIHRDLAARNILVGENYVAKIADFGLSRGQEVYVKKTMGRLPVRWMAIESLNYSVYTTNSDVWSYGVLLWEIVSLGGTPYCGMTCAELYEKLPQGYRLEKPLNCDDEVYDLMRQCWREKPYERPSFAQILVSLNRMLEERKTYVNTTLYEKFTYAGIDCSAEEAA
T2 sequence (P06239 whole entry, species assumed, the tested form may be a part): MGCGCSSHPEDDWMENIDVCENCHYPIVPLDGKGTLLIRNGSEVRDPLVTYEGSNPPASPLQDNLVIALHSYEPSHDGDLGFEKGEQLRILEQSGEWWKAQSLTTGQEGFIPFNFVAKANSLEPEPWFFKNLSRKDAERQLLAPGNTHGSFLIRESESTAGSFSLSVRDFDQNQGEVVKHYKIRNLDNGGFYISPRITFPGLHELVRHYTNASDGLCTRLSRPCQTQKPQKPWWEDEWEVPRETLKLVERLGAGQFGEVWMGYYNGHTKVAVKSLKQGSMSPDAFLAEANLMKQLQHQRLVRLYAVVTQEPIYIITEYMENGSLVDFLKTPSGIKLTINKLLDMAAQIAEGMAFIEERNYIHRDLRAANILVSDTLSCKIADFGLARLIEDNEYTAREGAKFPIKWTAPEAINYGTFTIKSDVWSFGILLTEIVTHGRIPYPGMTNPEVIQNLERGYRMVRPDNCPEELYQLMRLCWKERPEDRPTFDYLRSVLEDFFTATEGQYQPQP
T11 sequence (P17948 27-1338, species assumed): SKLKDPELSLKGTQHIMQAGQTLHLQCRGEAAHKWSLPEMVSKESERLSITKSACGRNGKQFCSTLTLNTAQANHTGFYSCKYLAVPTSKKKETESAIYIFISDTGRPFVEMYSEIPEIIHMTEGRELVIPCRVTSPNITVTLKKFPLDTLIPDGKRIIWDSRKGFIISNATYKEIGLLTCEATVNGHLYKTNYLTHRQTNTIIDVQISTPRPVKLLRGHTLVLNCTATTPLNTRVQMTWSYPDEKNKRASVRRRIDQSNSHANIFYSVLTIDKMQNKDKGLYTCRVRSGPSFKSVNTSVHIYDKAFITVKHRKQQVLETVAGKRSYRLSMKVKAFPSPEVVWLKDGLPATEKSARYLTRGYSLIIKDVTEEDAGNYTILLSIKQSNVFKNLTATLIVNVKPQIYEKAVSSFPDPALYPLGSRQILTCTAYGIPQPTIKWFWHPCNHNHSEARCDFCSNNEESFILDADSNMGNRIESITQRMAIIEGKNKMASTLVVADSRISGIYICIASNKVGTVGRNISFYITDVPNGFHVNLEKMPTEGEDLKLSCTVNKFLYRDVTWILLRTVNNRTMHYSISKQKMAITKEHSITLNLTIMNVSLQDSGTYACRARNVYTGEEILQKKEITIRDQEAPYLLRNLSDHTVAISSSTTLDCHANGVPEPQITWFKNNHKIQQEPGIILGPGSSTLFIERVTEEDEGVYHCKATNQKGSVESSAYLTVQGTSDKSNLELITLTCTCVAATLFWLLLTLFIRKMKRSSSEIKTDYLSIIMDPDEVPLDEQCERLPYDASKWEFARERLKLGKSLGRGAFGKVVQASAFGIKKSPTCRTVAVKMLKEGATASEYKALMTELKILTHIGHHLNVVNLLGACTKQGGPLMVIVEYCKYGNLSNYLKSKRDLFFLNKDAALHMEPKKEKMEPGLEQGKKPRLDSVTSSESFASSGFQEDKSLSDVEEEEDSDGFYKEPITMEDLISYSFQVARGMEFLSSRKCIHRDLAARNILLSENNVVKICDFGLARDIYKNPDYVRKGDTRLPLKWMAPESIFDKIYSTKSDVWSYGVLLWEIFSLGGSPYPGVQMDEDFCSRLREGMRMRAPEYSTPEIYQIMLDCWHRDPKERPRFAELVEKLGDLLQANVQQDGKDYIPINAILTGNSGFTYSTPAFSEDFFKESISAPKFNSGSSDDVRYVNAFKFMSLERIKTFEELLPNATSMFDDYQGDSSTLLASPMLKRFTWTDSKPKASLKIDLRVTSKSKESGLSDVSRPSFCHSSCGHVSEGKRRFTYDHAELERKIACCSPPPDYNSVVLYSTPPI

For `COc1cc(Nc2ncnc(-n3c(NCc4ccccc4)nc4ccccc43)n2)cc(OC)c1OC` [Compound 371], the IC50 on PDGFRB was under 0.827 µM; at Lck it was 0.827 to 4.96 µM; at Tek, over 9.31 µM; at EGFR, 4.96 to 7.24 µM; at Itk it was over 9.31 µM; at FGFR1 it was under 0.827 µM. For the same molecule, the IC50 is over 9.31 µM at c-Met; under 0.827 µM at Fyn; over 9.31 µM against IGFR-1; over 9.31 µM on ErbB4; under 0.827 µM on Flt-1; over 9.31 µM against Hck-1.

With `COc1cc(Nc2ncnc(Nc3cc(-c4ccccc4)nn3C)n2)cc(OC)c1OC` [Compound 394], the IC50 at PDGFRB was 0.923 to 5.54 µM; at Lck it was 0.923 to 5.54 µM; at Tek, over 10.4 µM; on EGFR, 8.07 to 10.4 µM; at Itk, over 10.4 µM; at FGFR1 it was 0.923 to 5.54 µM. For the same molecule, the IC50 on c-Met was over 10.4 µM; at Fyn, 0.923 to 5.54 µM; on IGFR-1, 0.923 to 5.54 µM; at ErbB4, over 10.4 µM; at Flt-1, under 0.923 µM; at Hck-1 it was over 10.4 µM.

For `COc1cc(Nc2ncnc(-n3c(Nc4ccc(C(C)C)cc4)nc4ccccc43)n2)cc(OC)c1OC` [Compound 388], the IC50 is 0.782 to 4.69 µM on PDGFRB; 0.782 to 4.69 µM at Lck; over 8.8 µM at Tek; over 8.8 µM at EGFR; over 8.8 µM at Itk; 4.69 to 6.84 µM at FGFR1. The IC50 at c-Met, on Fyn, against IGFR-1, at ErbB4, on Flt-1 and on Hck-1 was over 8.8 µM each time.

Take `O=C1OCc2ccc(Nc3ncnc(Nc4cc(-c5ccco5)n[nH]4)n3)cc21` [Compound 364]: the IC50 at PDGFRB is 6.39 to 9.32 µM; on Lck, 6.39 to 9.32 µM; at Tek, over 12 µM; on EGFR, 1.07 to 6.39 µM; on Itk, 6.39 to 9.32 µM; at FGFR1, 1.07 to 6.39 µM. Moreover, the IC50 on c-Met is 1.07 to 6.39 µM; on Fyn, over 12 µM; on IGFR-1, 1.07 to 6.39 µM; on ErbB4, over 12 µM; on Flt-1 it was 1.07 to 6.39 µM; on Hck-1 it was over 12 µM.

Regarding `COc1cc(Nc2ncnc(Nc3cccc(C)c3)n2)cc(OC)c1OC` [Compound 64], the IC50 at PDGFRB was 9.53 to 12.2 µM; at Lck, 1.09 to 6.53 µM; on Tek, over 12.2 µM; at EGFR, under 1.09 µM; on Itk, over 12.2 µM; on FGFR1, over 12.2 µM. The IC50 at c-Met was 6.53 to 9.53 µM; at Fyn it was 1.09 to 6.53 µM; against IGFR-1 it was under 1.09 µM; on ErbB4 it was over 12.2 µM; against Flt-1, over 12.2 µM; against Hck-1, over 12.2 µM.

For `COc1cc(Nc2ncnc(Nc3cccc(O)c3)n2)cc(OC)c1OC` [Compound 78], the IC50 is under 1.08 µM at PDGFRB; 1.08 to 6.5 µM on Lck; over 12.2 µM on Tek; under 1.08 µM on EGFR; 1.08 to 6.5 µM at Itk; under 1.08 µM on FGFR1. Besides, the IC50 on c-Met was over 12.2 µM; on Fyn it was under 1.08 µM; against IGFR-1, 1.08 to 6.5 µM; at ErbB4 it was 1.08 to 6.5 µM; against Flt-1, under 1.08 µM; on Hck-1, 1.08 to 6.5 µM.

As for `COc1cc(Nc2ncnc(-n3c(Nc4cccc(C)c4)nc4ccccc43)n2)cc(OC)c1OC` [Compound 386], the IC50 was 0.827 to 4.96 µM at PDGFRB; 4.96 to 7.24 µM at Lck; over 9.31 µM on Tek; over 9.31 µM on EGFR; over 9.31 µM at Itk; under 0.827 µM on FGFR1. Moreover, the IC50 is over 9.31 µM on c-Met; over 9.31 µM at Fyn; over 9.31 µM against IGFR-1; over 9.31 µM at ErbB4; under 0.827 µM on Flt-1; over 9.31 µM at Hck-1.

Take `COc1cc(Nc2ncnc(Nc3ccc4[nH]ncc4c3)n2)cc(OC)c1OC` [Compound 79]: the IC50 was 1.02 to 6.1 µM at PDGFRB; under 1.02 µM at Lck; over 11.4 µM at Tek; under 1.02 µM at EGFR; under 1.02 µM on Itk; 6.1 to 8.9 µM at FGFR1. Moreover, the IC50 at c-Met was 6.1 to 8.9 µM; on Fyn, 1.02 to 6.1 µM; on IGFR-1, under 1.02 µM; at ErbB4, 1.02 to 6.1 µM; on Flt-1, 1.02 to 6.1 µM; at Hck-1, over 11.4 µM.

With `COc1cc(Nc2ncnc(-n3c(Nc4cccc(C(=O)O)c4)nc4ccccc43)n2)cc(OC)c1OC` [Compound 390], the IC50 is 0.779 to 4.67 µM at PDGFRB; under 0.779 µM on Lck; 4.67 to 6.82 µM on Tek; 6.82 to 8.76 µM at EGFR; over 8.76 µM at Itk; 4.67 to 6.82 µM at FGFR1. Besides, the IC50 is 6.82 to 8.76 µM at c-Met; 0.779 to 4.67 µM at Fyn; over 8.76 µM on IGFR-1; 6.82 to 8.76 µM on ErbB4; 0.779 to 4.67 µM against Flt-1; over 8.76 µM against Hck-1.

As for `COC(=O)c1cccc(Nc2ncnc(Nc3cc(-c4ccco4)n[nH]3)n2)c1` [Compound 344], the IC50 was 6.36 to 9.27 µM at PDGFRB; 1.06 to 6.36 µM at Lck; over 11.9 µM at Tek; over 11.9 µM on EGFR; over 11.9 µM on Itk; under 1.06 µM on FGFR1. Besides, the IC50 at c-Met was 1.06 to 6.36 µM; on Fyn, over 11.9 µM; against IGFR-1, 1.06 to 6.36 µM; at ErbB4, over 11.9 µM; at Flt-1, 6.36 to 9.27 µM; on Hck-1, over 11.9 µM.

As for `COc1cc(Nc2ncnc(Nc3cc(-c4ccco4)n[nH]3)n2)cc(OC)c1` [Compound 365], the IC50 at PDGFRB is 6.33 to 9.23 µM; at Lck, 1.05 to 6.33 µM; on Tek it was over 11.9 µM; at EGFR it was 1.05 to 6.33 µM; on Itk, 1.05 to 6.33 µM; on FGFR1 it was 1.05 to 6.33 µM. The IC50 at c-Met is under 1.05 µM; at Fyn, 1.05 to 6.33 µM; against IGFR-1, under 1.05 µM; at ErbB4, 6.33 to 9.23 µM; against Flt-1, 1.05 to 6.33 µM; against Hck-1 it was over 11.9 µM.
